The values below come from patent publication US11649241B2, “Pyrazolochlorophenyl compounds, compositions and methods of use thereof” (Genentech, Inc., priority 2017, dated 2023).

The target of assay [1] is isolated recombinant JAK1 kinase domain (Homo sapiens (Human), UniProt P23458). Put plainly: JAK enzyme assay (Caliper LabChip peptide phosphorylation), JAK1. Format: biochemical. To be noted: 1.5 nM JAK1, ATP 25 μM, Morrison tight binding model.
Assay [2] deals with isolated recombinant JAK2 kinase domain (Homo sapiens (Human), UniProt O60674). In words: JAK enzyme assay (Caliper LabChip peptide phosphorylation), JAK2. Format: biochemical. The conditions noted are these: 0.2 nM JAK2, ATP 25 μM, Morrison tight binding model.
Assay [3] concerns JAK1-dependent STAT6 phosphorylation downstream of IL-13 stimulation (TF-1 / BEAS-2B cells). In words: JAK1 pathway assay in cell lines (IL-13-stimulated pSTAT6, MSD). Format: cell-based. To be noted: Homo sapiens, inhibition of STAT6 phosphorylation, cell line (TF-1 or BEAS-2B) not specified. Here is the method:
JAK1 Pathway Assay in Cell Lines was Carried Out as Follows:
Inhibitor potency (EC50) was determined in cell-based assays designed to measure JAK1 dependent STAT phosphorylation. As noted above, inhibition of IL-4, IL-13, and IL-9 signalling by blocking the Jak/Stat signaling pathway can alleviate asthmatic symptoms in pre-clinical lung inflammation models (Mathew et al., 2001, J Exp Med 193(9): 1087-1096; Kudlacz et. al., 2008, Eur J. Pharmacol 582(1-3): 154-161).
In one assay approach, TF-1 human erythroleukemia cells obtained from the American Type Culture Collection (ATCC; Manassas, Va.) were used to measure JAK1-dependent STAT6 phosphorylation downstream of IL-13 stimulation. Prior to use in the assays, TF-1 cells were starved of GM-CSF overnight in OptiMEM medium (Life Technologies, Grand Island, N.Y.) supplemented with 0.5% charcoal/dextran stripped fetal bovine serum (FBS), 0.1 mM non-essential amino acids (NEAA), and 1 mM sodium pyruvate. The assays were run in 384-well plates in serum-free OptiMEM medium using 300,000 cells per well. In a second assay approach, BEAS-2B human bronchial epithelial cells obtained from ATCC were plated at 100,000 cells per well of a 96-well plate one day prior to the experiment. The BEAS-2B assay was run in complete growth medium (bronchial epithelial basal medium plus bulletkit; Lonza; Basel, Switzerland).
Test compounds were serially diluted 1:2 in DMSO and then diluted 1:50 in medium just before use. Diluted compounds were added to the cells, for a final DMSO concentration of 0.2%, and incubated for 30 min (for the TF-1 assay) or 1 hr (for the BEAS-2B assay) at 37° C. Then, cells were stimulated with human recombinant cytokine at their respective EC90 concentrations, as previously determined for each individual lot. Cells were stimulated with IL-13 (R&D Systems, Minneapolis, Minn.) for 15 min at 37° C. The TF-1 cell reactions were stopped by the direct addition of 10× lysis buffer (Cell Signaling Technologies, Danvers, Mass.), whereas the BEAS-2B cell incubations were halted by the removal of medium and addition of 1× lysis buffer. The resultant samples were frozen in the plates at −80° C. Compound mediated inhibition of STAT6 phosphorylation was measured in the cell lysates using MesoScale Discovery (MSD) technology (Gaithersburg, Md.). EC50 values were determined as the concentration of compound required for 50% inhibition of STAT phosphorylation relative to that measured for the DMSO control.

Sequence of isolated recombinant JAK1 kinase domain (P23458 875-1153): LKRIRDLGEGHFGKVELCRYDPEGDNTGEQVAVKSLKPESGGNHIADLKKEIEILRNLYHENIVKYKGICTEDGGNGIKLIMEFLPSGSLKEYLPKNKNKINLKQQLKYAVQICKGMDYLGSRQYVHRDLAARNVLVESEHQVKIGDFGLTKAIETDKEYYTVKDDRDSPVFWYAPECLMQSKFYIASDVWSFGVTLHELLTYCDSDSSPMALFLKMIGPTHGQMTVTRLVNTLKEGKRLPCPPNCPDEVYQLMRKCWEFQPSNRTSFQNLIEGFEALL
Sequence of isolated recombinant JAK2 kinase domain (O60674 849-1124): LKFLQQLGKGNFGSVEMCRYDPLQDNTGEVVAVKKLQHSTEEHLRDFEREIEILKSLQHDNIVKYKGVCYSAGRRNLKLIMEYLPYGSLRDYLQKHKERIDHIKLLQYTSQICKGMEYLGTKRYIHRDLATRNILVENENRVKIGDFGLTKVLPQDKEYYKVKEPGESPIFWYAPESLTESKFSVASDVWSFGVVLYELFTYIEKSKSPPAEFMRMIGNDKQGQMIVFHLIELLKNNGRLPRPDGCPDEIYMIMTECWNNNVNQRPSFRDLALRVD

Take `O=C(Nc1c[nH]nc1-c1cc(Cl)ccc1OC(F)F)c1cncc2[nH]cnc12` [Example 15, N-(3-(5-chloro-2-(difluoromethoxy)phenyl)-1H-pyrazol-4-yl)-3H-imidazo[4,5-c]pyridine-7-carboxamide]: the Ki in assay [1] stood at 5.67 nM; in assay [2], 2.55 nM.
Regarding `COc1ccc(Cl)cc1-c1nn(C)cc1NC(=O)c1cncc2cn(C)nc12` [Example 1, N-(3-(5-Chloro-2-methoxyphenyl)-1-methyl-1H-pyrazol-4-yl)-2-methyl-2H-pyrazolo[4,3-c]pyridine-7-carboxamide], the Ki was 3.63 nM in assay [1] and 3.66 nM in assay [2]. This compound also gave an IC50 in assay [3] of 92.8 nM.
For `O=C(Nc1c[nH]nc1-c1cc(Cl)ccc1OC(F)F)c1cncc2scnc12` [Example 4, N-(3-(5-chloro-2-(difluoromethoxy)phenyl)-1H-pyrazol-4-yl)thiazolo[5,4-c]pyridine-7-carboxamide], the Ki in assay [1] came to 9.5 nM; in assay [2], 2.02 nM.
As for `COc1ccn2ncc(C(=O)Nc3c[nH]nc3-c3cc(Cl)ccc3OC(F)F)c2n1` [Example 14, N-(3-(5-chloro-2-(difluoromethoxy)phenyl)-1H-pyrazol-4-yl)-5-methoxypyrazolo[1,5-a]pyrimidine-3-carboxamide], the Ki in assay [1] is 0.18 nM; in assay [2] it was 0.04 nM. This compound also showed an IC50 in assay [3] of 3.8 nM.
The like results for `O=C(Nc1c[nH]nc1-c1cc(Cl)ccc1OC(F)F)c1coc2cccnc12` [Example 11, N-(3-(5-chloro-2-(difluoromethoxy)phenyl)-1H-pyrazol-4-yl)furo[3,2-b]pyridine-3-carboxamide] were, in that order, 0.56 nM, 0.49 nM and 17.5 nM.
In the case of `O=C(Nc1c[nH]nc1-c1cc(Cl)ccc1OC(F)F)c1snc2cccnc12` [Example 7, N-(3-(5-chloro-2-(difluoromethoxy)phenyl)-1H-pyrazol-4-yl)isothiazolo[4,3-b]pyridine-3-carboxamide], the figures for the Ki in assay [1] and in assay [2] were 0.54 nM and 0.6 nM, respectively. This compound also returned a half-maximal inhibitory concentration (IC50) in assay [3] of 20.2 nM.
The corresponding values for `O=C(Nc1c[nH]nc1-c1cc(Cl)ccc1OC(F)F)c1cnn2cc(F)cnc12` [Example 12, N-(3-(5-chloro-2-(difluoromethoxy)phenyl)-1H-pyrazol-4-yl)-6-fluoropyrazolo[1,5-a]pyrimidine-3-carboxamide] are 0.41 nM, 0.09 nM and 16.8 nM.
For `COc1ccc(Cl)cc1-c1n[nH]cc1NC(=O)c1cncc2scnc12` [Example 3, N-(3-(5-Chloro-2-methoxyphenyl)-1H-pyrazol-4-yl)thiazolo[5,4-c]pyridine-7-carboxamide], the Ki in assay [1] stood at 6.55 nM; in assay [2] it was 0.96 nM.
Take `O=C(Nc1c[nH]nc1-c1cc(Cl)ccc1OC(F)F)c1cnc2[nH]ccc2n1` [Example 8, N-(3-(5-chloro-2-(difluoromethoxy)phenyl)-1H-pyrazol-4-yl)-5H-pyrrolo[3,2-b]pyrazine-2-carboxamide]: the inhibitory constant (Ki) in assay [1] is 0.57 nM; in assay [2], 0.34 nM.
Turning to `COc1ccc(Cl)cc1-c1nn(C)cc1NC(=O)c1cncc2cn[nH]c12` [Example 2, N-(3-(5-Chloro-2-methoxyphenyl)-1-methyl-1H-pyrazol-4-yl)-1H-pyrazolo[4,3-c]pyridine-7-carboxamide], the figures for the Ki in assay [1] and in assay [2] were 1.35 nM and 0.35 nM, respectively. For the same compound, the IC50 in assay [3] was found to be 35.9 nM.
In the case of `Nc1nn2cccnc2c1C(=O)Nc1c[nH]nc1-c1cc(Cl)ccc1OC(F)F` [Example 9, 2-amino-N-(3-(5-chloro-2-(difluoromethoxy)phenyl)-1H-pyrazol-4-yl)pyrazolo[1,5-a]pyrimidine-3-carboxamide], the inhibition constant Ki in assay [1] is 0.49 nM; in assay [2] it was 0.17 nM. In assay [3], this compound yielded an IC50 of 7.9 nM.
Turning to `Nc1nc2c(C(=O)Nc3c[nH]nc3-c3cc(Cl)ccc3OC(F)F)cncc2s1` [Example 5, 2-amino-N-(3-(5-chloro-2-(difluoromethoxy)phenyl)-1H-pyrazol-4-yl)thiazolo[5,4-c]pyridine-7-carboxamide], the values for the Ki in assay [1] and in assay [2] were 0.97 nM and 0.06 nM, respectively.
As to `Cc1ccn2ncc(C(=O)Nc3c[nH]nc3-c3cc(Cl)ccc3OC(F)F)c2n1` [Example 13, N-(3-(5-chloro-2-(difluoromethoxy)phenyl)-1H-pyrazol-4-yl)-5-methylpyrazolo[1,5-a]pyrimidine-3-carboxamide], the Ki in assay [1] came out at 2.29 nM; in assay [2], 0.41 nM. Besides, in assay [3], the IC50 is 41.5 nM.
Regarding `O=C(Nc1c[nH]nc1-c1cc(Cl)ccc1OC(F)F)c1cncc2ccoc12` [Example 10, N-(3-(5-chloro-2-(difluoromethoxy)phenyl)-1H-pyrazol-4-yl)furo[3,2-c]pyridine-7-carboxamide], the values for the Ki in assay [1] and in assay [2] were 0.85 nM and 0.33 nM, respectively. In assay [3], this compound showed an IC50 of 50.6 nM.
As for `O=C(Nc1c[nH]nc1-c1cc(Cl)ccc1OC(F)F)c1cncc2cn[nH]c12` [Example 6, N-(3-(5-chloro-2-(difluoromethoxy)phenyl)-1H-pyrazol-4-yl)-1H-pyrazolo[4,3-c]pyridine-7-carboxamide], the Ki worked out at 7.35 nM in assay [1] and 0.48 nM in assay [2].

By Ki is commonly meant a measure of affinity in units of concentration, obtained from inhibition or displacement. For orientation: IC50 means the concentration at which inhibition is half-maximal. The low end stands for greater potency, the high end for weaker potency.
